Patent US20260078119A1, “DEGRADER COMPOUNDS AND USES THEREOF” (Bristol-Myers Squibb Company, priority 2024, published 2026)

Biological target: T1, FAK (Homo sapiens, UniProt Q05397)
T1 construct: homozygous knock-in of a HiBiT tag (Promega Corporation, Madison, WI) to the C-terminus of the FAK gene in its natural genomic locus; endogenous in cells; host or cells: JHH-4-FAK-HiBiT clone d01 (CRISPR-Cas9 knock-in at the endogenous locus)
Assay: FAK-HiBiT Degradation Assay
Type: cell-based
Settings: for DC50: JHH-4-FAK-HiBiT clone d01 cells, two hours incubation, 10-point dose response, 3-fold dilution starting at 1 μM, Nano-Glo HiBiT luminescence, read-out: FAK HiBiT EC50; for FAK HiBiT Ymin: lower limit of the four parameter fit (value A), Ymax derived using DMSO control, JHH-4-FAK-HiBiT cells, two hours
Text: To generate JHH-4-FAK-HiBiT cells for the FAK degradation assay, JHH-4 cells (Japanese Collection of Research Biosources Cell Bank, Japan) were transfected with ribonucleoprotein reagents to introduce, by CRISPR-Cas9 editing, the homozygous knock-in of a HiBiT tag (Promega Corporation, Madison, WI) to the C-terminus of the FAK gene in its natural genomic locus. Clonal cell populations were established by expanding single cells after CRISPR-Cas9 editing, with a clonal cell line named JHH-4-FAK-HiBiT clone d01 confirmed by next generation DNA sequencing to contain the expected HiBiT edited FAK gene and was selected for FAK degradation screening. Cells were selected and maintained in complete DMEM media (DMEM, 10% Heat Inactivated FBS, and Non-Essential Amino Acids at 37° C. and 5% CO2). Cells were passaged every 3-4 days by reseeding 0.5×10^6 cells in a T75 flask.
Cells were dispensed into 384-well white plates (Corning #3570, NY) that were pre-spotted with compounds using an acoustic dispenser (Echo acoustic transfer system, Beckman Coulter Life Sciences, Carlsbad, CA) as a 10-point dose response curve with a 3-fold dilution starting at 1 μM and including a DMSO control. Twenty-five microliters of media containing 2000 JHH-4-FAK-HiBiT Clone d01 cells was dispensed per well. Assay plates were incubated at 37° C. with 5% CO2 for two hours. After incubation, 25 μL of Nano-Glo HiBiT Lytic Reagent Working Solution (Promega Corporation, Madison, WI) was added to each well and incubated at room temperature for 10 minutes protected from light. After 10 minutes, luminescence was read on a PHERAstar luminometer (BMG Labtech, Cary, NC).
To determine the half-maximal effective concentration (EC50) values for FAK-HiBIT degradation, a four parameter logistic model was used: (Sigmoidal Dose-Response Model)(FIT=(A+((B−A)/1+((C/x)^D)))) where C is the inflection point (EC50), D is the Hill slope, and A and B are the low and high limits of the fit respectively). The lower limit of the fit (value A) is referred to as Ymin. The maximum limit constraint, Ymax, was derived using DMSO control. The curves were processed and evaluated using Dotmatics Atlas (Insightful Science, LLC, Boston, MA).

T1 sequence (Q05397 whole entry): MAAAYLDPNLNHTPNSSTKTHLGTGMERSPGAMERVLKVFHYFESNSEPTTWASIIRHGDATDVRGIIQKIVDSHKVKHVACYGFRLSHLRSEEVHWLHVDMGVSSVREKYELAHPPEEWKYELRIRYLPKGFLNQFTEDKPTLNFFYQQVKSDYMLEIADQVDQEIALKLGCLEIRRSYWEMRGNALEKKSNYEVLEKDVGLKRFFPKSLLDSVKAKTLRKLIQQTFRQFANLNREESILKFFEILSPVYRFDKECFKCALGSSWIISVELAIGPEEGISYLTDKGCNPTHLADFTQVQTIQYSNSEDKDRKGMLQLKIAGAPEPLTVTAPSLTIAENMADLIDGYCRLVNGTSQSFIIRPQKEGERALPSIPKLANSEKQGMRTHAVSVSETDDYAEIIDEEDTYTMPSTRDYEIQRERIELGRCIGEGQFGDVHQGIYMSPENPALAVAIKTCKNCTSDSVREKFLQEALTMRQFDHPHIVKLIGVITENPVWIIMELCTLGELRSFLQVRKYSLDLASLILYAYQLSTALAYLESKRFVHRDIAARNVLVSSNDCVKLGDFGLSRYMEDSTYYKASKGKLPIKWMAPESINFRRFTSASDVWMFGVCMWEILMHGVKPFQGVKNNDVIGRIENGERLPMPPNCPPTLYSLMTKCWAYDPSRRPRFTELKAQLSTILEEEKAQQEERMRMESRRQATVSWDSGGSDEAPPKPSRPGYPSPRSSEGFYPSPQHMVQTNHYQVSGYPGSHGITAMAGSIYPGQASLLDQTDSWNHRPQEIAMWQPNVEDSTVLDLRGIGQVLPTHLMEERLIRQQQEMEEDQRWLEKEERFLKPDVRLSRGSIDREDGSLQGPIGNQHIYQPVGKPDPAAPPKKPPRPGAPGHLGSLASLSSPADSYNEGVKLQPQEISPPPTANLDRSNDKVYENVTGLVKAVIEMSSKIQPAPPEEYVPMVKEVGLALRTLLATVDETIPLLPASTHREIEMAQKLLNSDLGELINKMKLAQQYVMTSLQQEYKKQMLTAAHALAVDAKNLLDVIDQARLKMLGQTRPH

DC50 | FAK HiBiT Ymin | SMILES
5.19 nM | 15.10 | CC(C)Nc1cc(-c2ccc(C#N)cc2Cl)c2cnn(Cc3ccc4c(c3)CN(C3CCC(=O)NC3=O)C4=O)c2n1 (centres unmarked) [Example 68, 3-chloro-4-(1-{[2-(2,6-dioxopiperidin-3-yl)-1-oxo-2,3-dihydro-1H-isoindol-5-yl]methyl}-6-[(propan-2-yl)amino]-1H-pyrazolo[3,4-b]pyridin-4-yl)benzonitrile]
5.6 nM | 13.38 | N#Cc1ccc(-c2cc(N3CCC3)nc3c2c(Cl)nn3Cc2ccc3c(c2)CN(C2CCC(=O)NC2=O)C3=O)c(Cl)c1 (centres unmarked) [Example 70, 4-[6-(azetidin-1-yl)-3-chloro-1-{[2-(2,6-dioxopiperidin-3-yl)-1-oxo-2,3-dihydro-1H-isoindol-5-yl]methyl}-1H-pyrazolo[3,4-b]pyridin-4-yl]-3-chlorobenzonitrile]
12.5 nM | 35.59 | O=C1CCC(N2Cc3cc(Cn4ncc5c(-c6ncc(C7CC7)cc6F)cc(N6CC(F)C6)nc54)ccc3C2=O)C(=O)N1 (centres unmarked) [Example 86, 3-(5-{[4-(5-cyclopropyl-3-fluoropyridin-2-yl)-6-(3-fluoroazetidin-1-yl)-1H-pyrazolo[3,4-b]pyridin-1-yl]methyl}-1-oxo-2,3-dihydro-1H-isoindol-2-yl)piperidine-2,6-dione]
29.2 nM | 11.17 | N#Cc1ccc(-c2cc(N3CCC3)nc3c2cnn3Cc2ccc3c(n2)CN(C2CCC(=O)NC2=O)C3=O)c(Cl)c1 (centres unmarked) [Example 101, 4-[6-(azetidin-1-yl)-1-{[6-(2,6-dioxopiperidin-3-yl)-5-oxo-5H,6H,7H-pyrrolo[3,4-b]pyridin-2-yl]methyl}-1H-pyrazolo[3,4-b]pyridin-4-yl]-3-chlorobenzonitrile]
5.67 nM | 11.11 | N#Cc1ccc(-c2cc(N3CC(F)C3)nc3c2cnn3Cc2ccc3c(c2)CN(C2CCC(=O)NC2=O)C3=O)c(F)c1 (centres unmarked) [Example 71, 4-(1-{[2-(2,6-dioxopiperidin-3-yl)-1-oxo-2,3-dihydro-1H-isoindol-5-yl]methyl}-6-(3-fluoroazetidin-1-yl)-1H-pyrazolo[3,4-b]pyridin-4-yl)-3-fluorobenzonitrile]
79.6 nM | 12.49 | N#Cc1ccc(-c2cc(N3CCC3)nc3c2cnn3Cc2cnc3c(c2)CN(C2CCC(=O)NC2=O)C3=O)c(Cl)c1 (centres unmarked) [Example 118, 4-[6-(azetidin-1-yl)-1-{[6-(2,6-dioxopiperidin-3-yl)-7-oxo-5H,6H,7H-pyrrolo[3,4-b]pyridin-3-yl]methyl}-1H-pyrazolo[3,4-b]pyridin-4-yl]-3-chlorobenzonitrile]
8.37 nM | 4.01 | CN(C)c1cc(-c2ccc(C#N)cc2Cl)c2ncn(Cc3ccc4c(c3)CN(C3CCC(=O)NC3=O)C4=O)c2n1 (centres unmarked) [Example 18]
9 nM | 53 | O=C1CC[C@H](N2Cc3cc(Cn4ncc5c(-c6ncc(Cl)cc6F)cc(N6CC[C@H](O)C6)nc54)ccc3C2=O)C(=O)N1 [Example 141, (3S)-3-(5-{[4-(5-chloro-3-fluoropyridin-2-yl)-6-[(3S)-3-hydroxypyrrolidin-1-yl]-1H-pyrazolo[3,4-b]pyridin-1-yl]methyl}-1-oxo-2,3-dihydro-1H-isoindol-2-yl)piperidine-2,6-dione]
124 nM | 43.76 | CC(C)(O)c1ccc(Cl)c(-c2cc(N3CCC3)nc3c2cnn3Cc2ccc3c(c2)CN(C2CCC(=O)NC2=O)C3=O)c1 (centres unmarked) [Example 124, 3-(5-{[6-(azetidin-1-yl)-4-[2-chloro-5-(2-hydroxypropan-2-yl)phenyl]-1H-pyrazolo[3,4-b]pyridin-1-yl]methyl}-1-oxo-2,3-dihydro-1H-isoindol-2-yl)piperidine-2,6-dione]

SMILES | DC50 | FAK HiBiT Ymin
CC(C)Nc1cc(-c2ncc(C#N)cc2F)c2cnn(Cc3ccc4c(c3)CN(C3CCC(=O)NC3=O)C4=O)c2n1 (centres unmarked) [Example 137, 6-(1-{[2-(2,6-dioxopiperidin-3-yl)-1-oxo-2,3-dihydro-1H-isoindol-5-yl]methyl}-6-[(propan-2-yl)amino]-1H-pyrazolo[3,4-b]pyridin-4-yl)-5-fluoropyridine-3-carbonitrile] | ≥ 1000 nM | 81.91
